Measured values: PubChem BioAssay (NCI)
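1) Cells in 96-well plates. 2) Compound, 48 h, 5 concentrations. 3) Linear interpolation between surrounding doses. 4) Unreached endpoint = highest concentration. Here, GI50 denotes the concentration required for 50% inhibition of growth. TGI: total growth inhibition.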

Assays:
Test in all cases: NCI-60 cell line screen, 48 h
T-47D breast = system: T-47D breast
CCRF-CEM leukemia = system: CCRF-CEM leukemia
SW-620 colon = system: SW-620 colon
HCC-2998 colon = system: HCC-2998 colon
LOX IMVI melanoma = system: LOX IMVI melanoma
NCI-H460 lung = system: NCI-H460 lung
HCT-15 colon = system: HCT-15 colon
OVCAR-4 ovarian = system: OVCAR-4 ovarian
RPMI-8226 leukemia = system: RPMI-8226 leukemia
SK-OV-3 ovarian = system: SK-OV-3 ovarian

Row | SMILES | GI50 (T-47D breast) | TGI (T-47D breast) | GI50 (CCRF-CEM leukemia) | TGI (CCRF-CEM leukemia) | GI50 (SW-620 colon) | TGI (SW-620 colon) | GI50 (HCC-2998 colon) | TGI (HCC-2998 colon) | GI50 (LOX IMVI melanoma) | TGI (LOX IMVI melanoma) | GI50 (NCI-H460 lung) | TGI (NCI-H460 lung) | GI50 (HCT-15 colon) | TGI (HCT-15 colon) | GI50 (OVCAR-4 ovarian) | TGI (OVCAR-4 ovarian) | GI50 (RPMI-8226 leukemia) | TGI (RPMI-8226 leukemia) | TGI (SK-OV-3 ovarian) | GI50 (SK-OV-3 ovarian)
1 | O=c1oc2ccc(I)cc2c(=O)n1-c1ccc(Cl)cc1F | 1.26 µM | 6.44 µM | 2.97 µM | 46.6 µM | 2.02 µM | 88.2 µM | 3.18 µM | 12.9 µM | 1.33 µM | 11.4 µM | 0.89 µM | 13.1 µM | 2.37 µM | 12.6 µM | 1.68 µM | 19 µM | 0.758 µM | 6.12 µM | – | –
2 | CC(=O)/C(=C/c1ccccc1F)C(=O)c1ccccc1 | – | > 100 µM | – | – | – | 56.1 µM | – | 45.1 µM | – | 40.8 µM | – | 97.8 µM | – | > 100 µM | – | > 100 µM | – | 44.4 µM | > 100 µM | –
3 | CC(C)CCC1(CCN)C(=O)NC(=O)NC1=O | – | > 100 µM | – | 48.3 µM | – | > 100 µM | – | – | – | > 100 µM | – | > 100 µM | – | > 100 µM | – | > 100 µM | – | > 100 µM | > 100 µM | –
4 | O=C(O)[C@@H](Cc1ccc2ccccc2c1)NC(=O)n1c2ccccc2c2ccccc21 | 11.6 µM | > 100 µM | 0.77 µM | 18 µM | 4.04 µM | > 100 µM | 3.91 µM | 19.1 µM | 3.63 µM | 20 µM | 3.47 µM | 33.5 µM | 3.29 µM | 28.6 µM | 6.8 µM | > 100 µM | 3.83 µM | 31.7 µM | 44.5 µM | 5.64 µM
5 | c1ccc2[nH]c(-c3ccc(Nc4nc(N5CCCCC5)nc(N5CCOCC5)n4)cc3)nc2c1 | 1.96 µM | 4.58 µM | 3.25 µM | > 100 µM | 2.34 µM | 5.87 µM | 3.74 µM | > 100 µM | 1.75 µM | 3.58 µM | 2.44 µM | 6.18 µM | 1.88 µM | 4.38 µM | 3.98 µM | 25.4 µM | 2.23 µM | 6.58 µM | 5.43 µM | 2.37 µM
6 | O=c1cc(/C=C/c2ccccc2)[nH]c2cc3c(cc12)OCO3 | – | 17.3 µM | – | – | – | 19.2 µM | – | 7.47 µM | – | – | – | 10.6 µM | – | 8.23 µM | – | 30.2 µM | – | 3.18 µM | 15.9 µM | –
7 | CCNC(=O)c1noc(-c2cc(C(C)C)c(O)cc2O)c1-c1ccc(CN2CCOCC2)cc1 | 0.0382 µM | 47.8 µM | 0.0321 µM | > 75.4 µM | < 0.01 µM | 23.9 µM | 0.0267 µM | 1.05 µM | 0.0159 µM | 0.0765 µM | < 0.0152 µM | 14.6 µM | 0.0388 µM | 19.9 µM | 10.9 µM | > 100 µM | 0.0428 µM | 23.1 µM | 22.3 µM | < 0.01 µM
8 | COC(=O)C1(C)Cc2cc(OC(C)=O)c(OC(C)=O)cc2N1 (centres undefined) | 4.55 µM | > 37.8 µM | 3.42 µM | > 46 µM | 8.83 µM | 28.7 µM | 17.8 µM | 33 µM | 5.06 µM | 19.7 µM | 32.8 µM | > 100 µM | 2.64 µM | 12.9 µM | 9.34 µM | 22.9 µM | 1.87 µM | 10.6 µM | > 100 µM | > 87.4 µM
9 | O=C(O)c1ccccc1/C=N/N=C1c2ccccc2-c2ccccc21 | – | > 100 µM | – | 78.7 µM | – | > 100 µM | – | – | – | > 100 µM | – | 70.2 µM | – | > 100 µM | – | > 100 µM | – | 48.2 µM | > 100 µM | –
10 | c1c[nH]c(CN2CCOCC2)n1 | – | > 100 µM | – | > 100 µM | – | > 100 µM | – | – | – | > 100 µM | – | > 100 µM | – | > 100 µM | – | > 100 µM | – | > 100 µM | > 100 µM | –
11 | Oc1ccccc1-c1nn(CNc2ccccc2Cl)c(=S)o1 | 13.5 µM | 74.9 µM | 20.1 µM | 55.4 µM | 41.9 µM | > 100 µM | – | – | 18.9 µM | 35.2 µM | 37.4 µM | > 100 µM | 17.9 µM | 38.7 µM | – | – | 20.2 µM | 59.6 µM | > 100 µM | > 100 µM
12 | O=C(O)[C@H](c1ccccc1)[C@@H](C(=O)O)c1ccccc1 | – | > 100 µM | – | – | – | > 100 µM | – | > 100 µM | – | > 100 µM | – | > 100 µM | – | > 100 µM | – | > 100 µM | – | > 100 µM | > 100 µM | –
13 | CC(=O)O[C@H]1CCc2c(cc(N)c3c2C(=O)C[C@]2(C)C([C@H](C)CCCC(C)C)CCC32C)C1(C)C (some centres undefined) | – | > 100 µM | – | > 100 µM | – | > 100 µM | – | > 100 µM | – | – | – | > 100 µM | – | > 100 µM | – | > 100 µM | – | > 100 µM | > 100 µM | –
14 | CC(C)(C)OC(=O)NCCCCCCCn1c2c(c3ccccc3c1=O)C(=O)c1ccccc1-2 | 16.4 µM | 78.1 µM | 76.1 µM | > 100 µM | 44 µM | > 100 µM | 40.6 µM | > 100 µM | 65.2 µM | > 100 µM | 28.6 µM | > 100 µM | 41.7 µM | > 100 µM | 30.5 µM | > 100 µM | – | – | > 100 µM | 31.6 µM
15 | CCCCn1c(-c2ccc(C(=O)O/N=C(\N)c3ccc4c(c3)OCO4)cc2)nc(-c2ccccc2)c1-c1ccccc1 | 1.85 µM | 4.95 µM | 1.05 µM | 3.4 µM | 3.81 µM | > 100 µM | 3.13 µM | 22.5 µM | 0.185 µM | 0.379 µM | 2.29 µM | 5.62 µM | 2.63 µM | > 100 µM | 3.5 µM | > 100 µM | – | – | > 100 µM | 7.13 µM
16 | N#CNC(N)=Nc1ccc(Cl)cc1 | – | > 100 µM | – | – | – | > 100 µM | – | > 100 µM | – | > 100 µM | – | > 100 µM | – | > 100 µM | – | > 100 µM | – | > 100 µM | > 100 µM | –
17 | CCOC(=O)C(NC(=O)c1nc[nH]c1[N+](=O)[O-])C(C)C (centres undefined) | – | – | – | > 100 µM | – | > 100 µM | – | > 100 µM | – | > 100 µM | – | > 100 µM | – | > 100 µM | – | > 100 µM | – | > 100 µM | > 100 µM | –
18 | CSC(=NCCc1c[nH]c2ccccc12)NC#N | – | – | – | > 100 µM | – | > 100 µM | – | > 100 µM | – | > 100 µM | – | > 100 µM | – | > 100 µM | – | > 100 µM | – | > 100 µM | > 100 µM | –
